These results are taken from patent US10030225B2, “Cell culture media” (Merck Patent GmbH, priority 2012, dated 2018).

Where a name gives a salt, the structure may show the parent alone.

One series can be described thus: Solubility in water. To be noted: for solubility (in words): comparison with tyrosine, refers to table 1; for solubility at 20° C. / solubility at 25° C. / solubility at 30° C.: in water.
The test system of series [1] is Recombinant CHO cells. In words: Fed batch process with neutral pH feed containing phospho-Tyr salts, 30 mL spin tubes. Format: cell-based. To be noted: 30 mM in feed at pH 7.0; control tyrosine 2Na+ and Cysteine in separate feed at pH 11. The method, then: FIGS. 5 and 6 show the viable cell density and IgG concentration over time in a fed batch process. Recombinant CHO cells are grown in fully chemically defined basal media and a feed containing phospho-Tyr salts at pH 7.0 is added on day 3; 5, 7 and 9 (addition of % v/v of 3%; 6% 6% 6%). […]. In these cases, Cysteine is still added as a separate feed at pH 11.
The process is performed in 30 mL spin tubes at 37° C., 5% CO2, agitation 320 rpm. For control, according to the state of the art, tyrosine 2Na+ and Cysteine are solubilized at pH 11 in a separate feed and added at day 3; 5; 7; 9 in %(V/V) of 0.3%, 0.6%, 0.6% and 0.6%.
The glucose concentration is measured every day and adjusted accordingly to maintain a concentration>2 g/L

Series [2] deals with Recombinant CHO cells. In words: Fed batch process with feed containing S-sulfocysteine and PTyr 2Na+ at pH 7.0, 1.2 L bioreactors. Format: cell-based. To be noted: main feed pH 7.0, in combination with PTyr 2Na+; control tyrosine 2Na+ and Cysteine at pH 11. How it is done: FIGS. 7 and 8 show the viable cell density and IgG concentration over time in a fed batch process. Recombinant CHO cells are grown in fully chemically defined basal media and a feed containing both S-sulfocysteine and PTyr 2Na+ at pH 7.0. Feed is added on day 3; 5, 7, 9 and 14 (addition of % v/v of 3%; 6% 6% 6%, 3%). The process is performed in 1.2 L bioreactors at 37° C., pH 7.0, 50% dissolved oxygen, agitation 140 rpm. For control, according to the state of the art, tyrosine 2Na+ and Cysteine are solubilized at pH 11 in a separate feed and added at day 3; 5; 7; 9, 14 in %(V/V) of 0.3%, 0.6%, 0.6%, 0.6%, 0.3%. The glucose concentration is measured every day and adjusted accordingly to maintain a concentration>2 g/L

Series [3] has as its system cells. In words: Batch experiment in chemically defined medium where Cysteine was replaced by S-sulfocysteine sodium salt. It counts as cell-based. As to conditions: 1.5 and 3 mM, equivalent concentration to Cysteine. How it is done:
Batch experiment in chemically defined medium where Cysteine was replaced by S-sulfocysteine sodium salt (equivalent concentration). The CDM powder used as basis was depleted in Cysteine and Cystine and supplemented during reconstitution with Cysteine for the control conditions (1.5 and 3 mM) or with S-sulfocysteine sodium salt for the test conditions (1.5 and 3 mM).

The test system of series [4] is cells. In words: Batch experiment in chemically defined medium where tyrosine was replaced by PTyr salts. It counts as cell-based. From the text:
Batch experiment in chemically defined medium where tyrosine was replaced by PTyr salts. PTyr means (S)-2-Amino-3-(4-phosphonooxy-phenyl)-propionic-acid salt.

In the case of `N[C@@H](Cc1ccc(OP(=O)([O-])O)cc1)C(=O)O.[Na+]` [D3], in the series “Solubility in water”, the “solubility (in words)” value was “higher solubility”, the “solubility at 20° C.” value came to 5.5%, the “solubility at 25° C.” value is on record as 5.3% and the “solubility at 30° C.” value is 11.4%.
Consider `N[C@@H](Cc1ccc(OP(=O)([O-])[O-])cc1)C(=O)O.[Na+].[Na+]` [D4], for which, in the series with Recombinant CHO cells [1], the “impact on growth (viable cell density)” value is “no negative impact” and the “impact on titer (IgG concentration)” value is recorded as “no negative impact”. Moreover, in “Solubility in water”, the “solubility (in words)” value was “very good solubility”, the “solubility at 20° C.” value turned out to be 9.8%, the “solubility at 25° C.” value was found to be 10.1% and the “solubility at 30° C.” value amounted to 9.2%.
In the case of `N[C@@H](Cc1ccc(OP(=O)(O)O)cc1)C(=O)O` [PTyr Magnesium salt, (S)-2-Amino-3-(4-phosphonooxy-phenyl)-propionic-acid 2:1-magnesium salt], in the series on Recombinant CHO cells [1], the “impact on growth (viable cell density)” value is given as “no negative impact” and the “impact on titer (IgG concentration)” value is recorded as “no negative impact”.
For the compound `N[C@@H](Cc1ccc(OP(=O)([O-])O)cc1)C(=O)O.[K+]` [PTyr Potassium salt, (S)-2-Amino-3-(4-phosphonooxy-phenyl)-propionic-acid mono potassium salt], in the series on Recombinant CHO cells [1], the “impact on growth (viable cell density)” value is on record as “no negative impact” and the “impact on titer (IgG concentration)” value is given as “no negative impact”.
In the case of `N[C@H](CSS(=O)(=O)[O-])C(=O)[O-].[Na+].[Na+]` [S-sulfocysteine sodium salt, (S)-2-amino-3-sulfosulfanylpropanoic acid sodium salt], in the series with Recombinant CHO cells [2], the “growth (viable cell density) in comparison to the control” value was “extended growth” and the “titer (IgG concentration) in comparison to the control” value is “significant increase”. Besides, the “cell growth versus Cysteine control” value with cells [3] was “comparable growth”.
As to “(S)-2-Amino-3-(4-phosphonooxy-phenyl)-propionic-acid salt [PTyr]”, the “maximum viable cell density versus control” value in the series on cells [4] (PTyr 4.5 mM in the CDM versus 1 mM tyrosine in the control) is on record as “even higher”. Moreover, in the series on cells [4] (PTyr 4.5 mM in the CDM versus control), the extended growth is recorded as 2 days. Further, the cell growth result in the series on cells [4] (PTyr at the same concentration as Tyrosine in the medium (1 mM in the control)) is listed as “cells didn't grow”.
